Target: Cytochrome P450 3A4 (Homo sapiens) (UniProt P08684)
Test: qHTS Assay for Inhibitors of Bacillus subtilis Sfp phosphopantetheinyl transferase (PPTase): CYP 3A4
Conditions: CYP3A4 inhibition, 3 uM, ADME profiling; hits give high values
Description: The covalent attachment of a phosphopantetheinyl (4'-PP) arm to a variety of synthases and other proteins is a key posttranslational protein modification. The 4'-PP is installed on the proteins post-translationally from coenzyme A (CoA) on a conserved serine residue by action of phosphopantetheinyl transferase (PPTase) enzymes. Phosphopantetheinylation is essential for synthase activity, and removal of the PPTase gene precludes natural product synthesis in microorganisms, or in the case of fatty acid biosynthesis, renders the organism unviable. PPTase enzymes belong to a distinct structural superfamily. Within bacteria, these enzymes are grouped into two classes based upon primary structure, the AcpS-Type and Sfp-Type PPTases.
Sfp-type PPTases, corresponding to an activator of surfactin production in Bacillus subtilis, are responsible for modifying type I polyketide and nonribosomal peptide synthases of prokaryotes. Sfp-type PPTases are responsible for the activation of a variety of pathogen-associated virulence factors. Among these compounds are toxins such as mycolactone from Mycobacterium ulcerans, siderophores such as vibriobactin from Vibrio cholerae or mycobactin from Mycobacterium tuberculosis, as well as the mycolic acids which form the waxy cell wall of Mycobacteria. The biosyntheses of these natural products are considered attractive targets for drug design. […]

Cytochrome P450 3A4 (Homo sapiens), sequence (P08684 whole entry, looked up): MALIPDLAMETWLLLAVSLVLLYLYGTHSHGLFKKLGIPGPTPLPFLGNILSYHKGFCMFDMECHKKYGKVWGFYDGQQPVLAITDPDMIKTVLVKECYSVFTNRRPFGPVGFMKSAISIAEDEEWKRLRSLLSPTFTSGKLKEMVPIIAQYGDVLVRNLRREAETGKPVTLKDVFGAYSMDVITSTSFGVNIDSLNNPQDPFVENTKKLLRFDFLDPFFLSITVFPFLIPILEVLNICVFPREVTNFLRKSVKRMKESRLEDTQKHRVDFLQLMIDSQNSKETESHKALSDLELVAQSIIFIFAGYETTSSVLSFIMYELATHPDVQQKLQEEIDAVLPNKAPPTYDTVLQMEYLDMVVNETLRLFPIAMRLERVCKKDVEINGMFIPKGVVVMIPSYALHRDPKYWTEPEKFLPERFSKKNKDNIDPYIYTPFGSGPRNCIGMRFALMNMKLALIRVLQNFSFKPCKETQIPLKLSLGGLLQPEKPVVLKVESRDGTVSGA

inhibition: 20%
Structure (SMILES): COc1ccnc(NC(=S)N2CCN(c3ncc(C(F)(F)F)cc3Cl)CC2)c1

Reference: PubChem BioAssay AID624118 (National Center for Advancing Translational Sciences (NCATS), 2012)
